Assay results taken from patent US20190365689A1, “USE OF APE/REF-1 REDOX SPECIFIC INHIBITORS FOR TREATING METASTATIC PROSTATE CANCER” (Indiana University Research and Technology Corporation, priority 2017, published 2019).

Assays:
PC-3 cells = test: Methylene blue assay (cell proliferation), PC-3; type: cell-based, human; settings: PC-3, 5 days
Method: (§1) The cells were fixed and stained with methylene blue and measured via spectrophotometry. […] EC50s were compared between the drugs: * denotes p<0.05 drug EC50 versus RN7-58, while ¶ denotes p<0.05, APX3330 versus APX2009.
(§2) Methylene Blue Assay (Cell Proliferation)
(§3) Prostate cells were seeded 1,000-5000 per well (cell line/experiment-dependent) and treated with one of APX3330, APX2009 or RN7-58 for 5 days. Media was then removed and cells were fixed with methanol for 10 minutes and stained with 100 μL of 0.05% of methylene blue (LC16920-1 diluted in 1×PBS) for 1 hour. The cells were then washed 3× with water and allowed to air dry overnight. 100 μL of 0.5 N HCl was added to each well to dissolve the methylene blue stain and absorbance (@630) was measured via spectrophotometry. The percent viabilities, normalized to DMSO, were graphed and IC50 concentrations determined.
(§4) To determine if inhibition of APE1/Ref-1's redox function affects cell proliferation, prostatic cell lines were treated with increasing concentrations of redox-specific inhibitors, APX3330 and APX2009, for 5 days and cell number was measured via methylene blue assay (FIG. 2A). […] Growth IC25's and IC50's were determined and arranged in Table 1. Student's t-test was performed to verify statistical IC25 and IC50 differences between APX3330 and APX2009.

C4-2 cells = test: Methylene blue assay (cell proliferation), C4-2; type: cell-based, human; settings: C4-2, 5 days
Method: as §1, §2, §3, §4

LNCaP cells = test: Methylene blue assay (cell proliferation), LNCaP; type: cell-based, human; settings: 5 days
Method: as §1, §2, §3, §4

E7 cells = test: Methylene blue assay (cell proliferation), E7 non-cancerous prostate epithelial cells; type: cell-based; settings: E7, 5 days
Method: as §1, §2, §3, §4

prostatic cell lines = test: Methylene blue assay (cell proliferation), statements across prostatic cell lines; type: cell-based, human; settings: increasing concentrations, 5 days
Method: as §1, §2, §3, §4

survivin = test: Immunoblotting for survivin protein levels in prostate cancer cells; type: cell-based, human
Method: (§5) PC-3 (FIG. 3A), C4-2 (FIG. 3B), LNCaP (FIG. 3C) and E7 (FIG. 3D) cell lines were treated with DMSO, or the growth inhibitory IC25 and IC50 drug concentrations of APX3330 or APX2009 for 48 hours Immunoblotting for survivin, APE1/Ref-1 and Actin as labeled. Representative of three determinations with densitometry quantification, N=3, *-denoting p<0.05 (DMSO vs. IC25 and IC50 Drug Concentrations) within ANOVA.
FIG. 6A: C4-2 cell line was treated with DMSO or APX2009 (14 μM) for 12 hours. RNA was isolated and RT-PCR for survivin was performed with HPRT1 as the reference gene. n=6, *-denoting p<0.05 by unpaired Student's t-test. FIG. 6B: Immunoblot validation of APE1/Ref-1 and p65 Co-Immunoprecipitation (Co-IP) reactions. A 5% sample of the total input of each reaction (Input) and the total IP reaction (IP) were loaded for each reaction. Beads lacking a conjugated antibody (Mock) and generic IgG (IgG) were used as negative controls for each IP experimental reaction, APE1 antibody (top blots) and p65 (bottom blots). FIG. 6C: C4-2 cell line was treated with DMSO, APX2009 (8 and 14 μM) or PDTC (50 and 100 μM) for 72 hours and cells were fixed and methylene blue was performed. n=3, *-denoting p<0.05 (DMSO vs 8 and 14 μM APX2009) and #-denoting p<0.05 (DMSO vs. 50 and 100 μM PDTC) as assessed by ANOVA. […] Data are expressed as Relative Luciferase Units (RLU) normalized to DMSO showing the mean±SEM. n=3, *-denoting p<0.05 (DMSO vs. 14 μM APX2009) and #-denoting p<0.05 (DMSO vs. 100 μM PDTC) within unpaired Students t-test. […] Data presented are representative of three determinations with densitometry quantification, […], *-denoting p<0.05 (DMSO vs. 14 μM APX2009) and #-denoting p<0.05 (DMSO vs. 100 μM) as assessed by unpaired Student's t-test.
Prostate cells were homogenized in lysis buffer containing protease inhibitor (150 mM NaCl, 10 mM tris, 1 mM EDTA, 1 mM benzenesulfonyl fluoride, and 10 μg/ml each of aprotinin, bestatin, L-luecine, and pepstatin A) and 1% Triton X-100. Total protein concentration was determined by BCA (bicinchoninic acid) assay (Pierce, Rockford, Ill.). […]

APE1/Ref-1 = test: Immunoblotting for total APE1/Ref-1 protein levels in prostate cancer cells; type: cell-based, human; settings: growth inhibitory drug concentrations, 48 hours, vs DMSO
Method: as §5
Prostate cells were homogenized in lysis buffer containing protease inhibitor (150 mM NaCl, 10 mM tris, 1 mM EDTA, 1 mM benzenesulfonyl fluoride, and 10 μg/ml each of aprotinin, bestatin, L-luecine, and pepstatin A) and 1% Triton X-100. Total protein concentration was determined by BCA (bicinchoninic acid) assay (Pierce, Rockford, Ill.). 10 μg/well of Protein were resolved by electrophoresis in 4-15% gradient polyacrylamide gels (Bio-Rad Laboratories). […] Peroxidase activity was detected via Pico chemiluminescence reagent (Pierce). Photo images were analyzed by densitometry.

C4-2 xenograft tumors = test: In vivo subcutaneous C4-2 xenograft tumor; design: species or system male athymic nude mice
Method: C4-2 xenograft tumors were treated with vehicle (Propylene Glycol Kolliphor HS15 Tween 80 (PKT)) or APX2009 (25 mg/kg, IP bid) for 5 days (n=3). Tumors were removed and processed for either immunofluorescence or immunoblotting. FIG. 8A: APE1/Ref-1 and survivin protein levels were measured using immunoblotting as labeled (Left). Data was presented graphically (Right), *-denoting p<0.05 by unpaired Student's t-Test. FIG. 8B: Hematoxylin and Eosin staining and immunofluorescence were performed using APE1/Ref-1 (red) and survivin (green) specific antibodies on vehicle and APX2009 groups. Representative images were taken. White arrows are depicting survivin nuclear staining patterns. […] ImageJ Nucleus Counter was used to quantify number of BrdU+ nuclei and total nuclei per image. n=3, *-denoting p<0.05 by unpaired Student's t-test.
Human prostate specimens or C4-2 xenograft tumors were fixed in 10% formalin, processed routinely, embedded in paraffin, and serially sectioned at 5 μm via microtome. […] The sections were analyzed by immunofluorescence. […]
2×10^6 C4-2 cells were subcutaneously implanted in the hind flank of male athymic nude mice using a 100 μl volume of 50:50 solution of Matrigel: RPMI medium. […] BrdU was injected into the animals 2 hours prior to sacrifice and tumor tissues were analyzed for survivin levels (immunofluorescence and immunoblotting) and BrdU incorporation (immunofluorescence).

NFκB = test: NFκB-driven luciferase assay in C4-2 cells; type: cell-based, human; settings: C4-2, growth inhibitory IC50 concentrations (14 μM APX2009, 100 μM PDTC), 24 hours
Method: FIG. 6A: C4-2 cell line was treated with DMSO or APX2009 (14 μM) for 12 hours. RNA was isolated and RT-PCR for survivin was performed with HPRT1 as the reference gene. n=6, *-denoting p<0.05 by unpaired Student's t-test. FIG. 6B: Immunoblot validation of APE1/Ref-1 and p65 Co-Immunoprecipitation (Co-IP) reactions. A 5% sample of the total input of each reaction (Input) and the total IP reaction (IP) were loaded for each reaction. Beads lacking a conjugated antibody (Mock) and generic IgG (IgG) were used as negative controls for each IP experimental reaction, APE1 antibody (top blots) and p65 (bottom blots). FIG. 6C: C4-2 cell line was treated with DMSO, APX2009 (8 and 14 μM) or PDTC (50 and 100 μM) for 72 hours and cells were fixed and methylene blue was performed. n=3, *-denoting p<0.05 (DMSO vs 8 and 14 μM APX2009) and #-denoting p<0.05 (DMSO vs. 50 and 100 μM PDTC) as assessed by ANOVA. […] Data are expressed as Relative Luciferase Units (RLU) normalized to DMSO showing the mean±SEM. n=3, *-denoting p<0.05 (DMSO vs. 14 μM APX2009) and #-denoting p<0.05 (DMSO vs. 100 μM PDTC) within unpaired Students t-test. […] Data presented are representative of three determinations with densitometry quantification, […], *-denoting p<0.05 (DMSO vs. 14 μM APX2009) and #-denoting p<0.05 (DMSO vs. 100 μM) as assessed by unpaired Student's t-test. […]

[1] = 25% reduction in absorbance vs DMSO, in µM
[2] = 50% reduction in absorbance vs DMSO, read-out: Growth IC50

Molecule	Growth IC25 (PC-3 cells; [1])	IC50 (PC-3 cells; [2]) [µM]	Growth IC25 (C4-2 cells; [1])	IC50 (C4-2 cells; [2]) [µM]	Growth IC25 (LNCaP cells; [1])	IC50 (LNCaP cells; [2]) [µM]	Growth IC25 (E7 cells; [1])	IC50 (E7 cells; [2]) [µM]	Effect on cell proliferation (prostatic cell lines)	survivin protein abundance (survivin; growth inhibitory IC50 drug concentrations, within 48 hours, vs DMSO)	survival proteins Bcl-2, Mcl-1 and survivin (survivin; prostate cell lines, immunoblotting)	total APE1/Ref-1 protein levels (APE1/Ref-1)	Total survivin protein in tumors via immunoblotting (C4-2 xenograft tumors; 25 mg/kg BID IP, 5 days, vs vehicle)	cell proliferation via BrdU staining (C4-2 xenograft tumors; prostatic tumor xenografts)	reduction in survivin protein levels (survivin; C4-2, 14 μM APX2009 / 100 μM PDTC, 48 hours) [%]	decrease in NFκB-driven luciferase activity (NFκB)
3-[(5-(2,3-dimethoxy-6-methyl1,4-benzoquinoyl)]-2-nonyl-2-proprionic acid [APX3330]	36.0 +/− 1.0	54.7	57.4 +/− 3.8	89.5	43.8 +/− 4.2	71.9	82.7 +/− 8.7	> 100	inhibited cell proliferation in a concentration-dependent manner	significant decrease	decrease	not significantly altered	decreased	decreased		
N.S=C(S)N1CCCC1 [PDTC, Ammonium pyrrolidinedithiocarbamate, reference compound]															67	two-fold
